Assay results from patent US20060204980A1, “Colorectal cancer therapies” (priority 2004, published 2006).

Tests used:
[1] = tested on: p53^−/− HCT116 colorectal carcinoma cells; assay: Western blotting of p53 pathway proteins in treated p53-/- HCT116 cells; assay type: cell-based
Experimental: Cells were collected and centrifuged at 3,000 rpm for 5 minutes at 4° C., and washed in PBS (pH 7.2). The cell pellet was solubilized in lysis buffer (20 mM Tris, pH 7.2, 0.5% deoxycholate, 1% Triton X-100, 0.1% SDS, 150 mM NaCl, 1 mM EDTA) containing proteases inhibitors (Complete, Roche Applied Science) for 30 min at 4° C. The lysate was cleared by centrifugation for 15 minutes, and protein concentration was evaluated using a Bio-Rad protein assay system (Bio-Rad Laboratories, Hercules, Calif.). Samples (30 μg) were separated by SDS-polyacrylamide gel, transferred to nylon membranes (Millipore), and incubated with primary antibodies to p53 (Oncogene Research Products, FL-393, Santa Cruz Biotechnology, Inc., Santa Cruz, Calif.), p21^Waf1/Cip1 (Oncogene Research Products), XIAP (BD Transduction Laboratories), survivin (NOVUS Biologicals, Littleton, Colo.), MDM2 (Santa Cruz Biotechnology, Inc.), p14^ARF (NOVUS Biologicals), caspase-3 (Cell Signaling Technology), cleaved caspase-3 (Cell Signaling Technology), β-catenin (BD Transduction Laboratories), cyclin B1 (GNS1, Santa Cruz Biotechnology, Inc.), GSK3β (Santa Cruz Biotechnology, Inc.), or β-sactin (Sigma) with detection of reactive bands by chemiluminescence (Amersham). Cells were analyzed for hypodiploid DNA content by propidium iodide staining and flow cytometry as described in O'Connor et al., Cancer Cell, 2:43-54 (2002). Chemicals whose source is not explicitly listed were or can be obtained from Sigma.
To explore the link between GSK3β inhibition and p53 modulation, in vivo, HCT116 cells were treated with Li, TDZD or SB216763, and analyzed cells by Western blotting. p53^+/+ or p53^−/− HCT116 cells were incubated with the following GSK3β inhibitors, LiCl (Sigma, 30 mM), thiadiazolidinone-8 (TDZD) (Calbiochem, 0-20 μM), or SB216763 (Sigma, 20 μM), cells were harvested after 6-24 hours, and samples were analyzed by Western blotting as described in Example 2.

GSK3β [2] = molecular target: T1, GSK3β (Homo sapiens, UniProt P49841); assay: Immunoprecipitation and GSK3β kinase assay using glycogen synthase-derived peptide substrate, from treated HCT116 cells; assay type: cell-based; parameters: harvested after 6 or 12 hours, and immunoprecipitated with an antibody to GSK3β; endogenous in cells; host or cells: HCT116 (p53+/+) colorectal carcinoma cells; conditions: p53+/+ HCT116 cells; Purvalanol A 10 μM, LiCl 30 mM, TDZD 20 μM; 6 or 12 hours
T1 sequence (P49841 whole entry): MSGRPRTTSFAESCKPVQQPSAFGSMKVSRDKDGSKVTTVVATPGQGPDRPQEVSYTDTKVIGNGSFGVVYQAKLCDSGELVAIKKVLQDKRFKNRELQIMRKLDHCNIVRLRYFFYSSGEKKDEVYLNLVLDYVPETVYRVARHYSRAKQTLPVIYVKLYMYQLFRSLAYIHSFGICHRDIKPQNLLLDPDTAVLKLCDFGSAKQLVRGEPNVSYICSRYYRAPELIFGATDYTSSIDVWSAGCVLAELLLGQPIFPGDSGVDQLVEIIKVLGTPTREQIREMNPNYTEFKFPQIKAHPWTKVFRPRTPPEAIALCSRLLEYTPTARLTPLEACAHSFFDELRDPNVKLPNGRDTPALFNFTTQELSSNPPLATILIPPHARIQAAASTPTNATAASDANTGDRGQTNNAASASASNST
Experimental: Immune complexes were mixed with a synthetic peptide containing a GSK3β phosphorylation site derived from the sequence of glycogen synthase (Upstate Biotechnology) in the presence of 10 μCi of γ-^32P-ATP (Amersham Corp., Piscataway, N.J.), after 30 min incubation at 30° C., the reaction mixtures were centrifuged briefly, and 15 μl of the supernatant was spotted onto P81 phosphocellulose paper (Whatman Inc., Clifton, N.J.). The membrane was washed three times with 175 mM phosphoric acid, rinsed once in acetone, and dried. Changes in peptide phosphorylation under the various conditions tested were determined by scintillation counting. Data were analyzed using the unpaired t test on a Graphpad Prism software package for Windows (Graphpad Inc., San Diego, Calif.). A P value of 0.05 was considered as statistically significant.

[3] = tested on: wild-type (WT) or GSK3β^−/− primary murine embryonic fibroblasts (MEF) cells; assay: Western blotting of p53 in wild-type or GSK3β-/- primary MEF cells; assay type: cell-based; parameters: dose or concentration left out as unconfirmed; conditions: Purvalanol A, 6-24 hour
Description: To confirm the link between GSK3β inhibition and p53 modulation in vivo, p53^+/+ HCT116 cells were transfected with wild-type GSK3β or a kinase-dead GSK3β dominant negative mutant (GSK3β DN mutant), previously described in Pap and Cooper, J. Biol. Chem., 273:19929-19932 (1998). Non-transformed wild-type (WT) or GSK3β^−/− primary murine embryonic fibroblasts (MEF) cells, described in Hoeflich et al., Nature, 406:86-90 (2000), were maintained in culture in DMEM supplemented with 10% FCS, 100 U/ml penicillin, and 100 μg/ml streptomycin (all from Invitrogen) in 5% CO2 at 37° C. […] Western blotting was performed as described in Example 2, to evaluate the expression of p53, p21^Waf1/Cip1 or β-actin at 6-24 hour intervals.

p42/p44 MAP kinase = conditions: in vivo, Knockaert et al.; cited from earlier work
p53^+/+ HCT116 cells = assay: Hypodiploid DNA content by propidium iodide staining and flow cytometry, p53+/+ HCT116; assay type: cell-based; conditions: 0-20 μM, 48 hours
Experimental: Cells were collected and centrifuged at 3,000 rpm for 5 minutes at 4° C., and washed in PBS (pH 7.2). The cell pellet was solubilized in lysis buffer (20 mM Tris, pH 7.2, 0.5% deoxycholate, 1% Triton X-100, 0.1% SDS, 150 mM NaCl, 1 mM EDTA) containing proteases inhibitors (Complete, Roche Applied Science) for 30 min at 4° C. The lysate was cleared by centrifugation for 15 minutes, and protein concentration was evaluated using a Bio-Rad protein assay system (Bio-Rad Laboratories, Hercules, Calif.). […] Cells were analyzed for hypodiploid DNA content by propidium iodide staining and flow cytometry as described in O'Connor et al., Cancer Cell, 2:43-54 (2002). […]
The functional consequences of GSK3β inhibition were explored. […] Alternatively, cells were incubated with GSK3β inhibitors LiCl (30 mM) or TDZD (20 μM), harvested after 48 hours and analyzed for cell viability (propidium iodide, red channel) and active caspase-3/7 activity (green channel, […]®, from Chemicon International Inc., Temecula, Calif.), by multiparametric flow cytometry as reported previously in Kim et al., Lancet, 362:205-209 (2003).

GSK3β [4] = molecular target: T1, GSK3β; conditions: battery of kinase substrates, Bain et al.; cited from earlier work
[5] = tested on: in vivo adapted p53^+/+ HCT116 cells; assay: Xenograft tumor model with in vivo adapted p53+/+ HCT116 cells; parameters: species or system CB17 SCID/beige mice
Experimental: In vivo adapted p53^+/+ HCT116 cells (2.5×10^6) were injected in the flank of CB17 SCID/beige mice (Taconics, Germantown, N.Y.) and allowed to form palpable solid tumors for 4-6 days. […] Tumor measurements were taken daily for a week with a caliper. Tumor volume was calculated according to the formula ½ [length (mm)]×[width (mm)]^2.
Adapted HCT116 cells in CB-17 SCID/beige mice gave rise to rapidly growing solid tumors over a one-week period. […] See filled-in circles in FIG. 7.

Q: With `CC(C)[C@H](CO)Nc1nc(Nc2cccc(Cl)c2)c2ncn(C(C)C)c2n1` [Purvalanol A] as the compound, how does the “p53-reactive material (Western blot)” value [1] read?
A: did not modulate the expression of p53-reactive material

Q: What about the “survivin expression (Western blot)” value [1] of the same compound?
A: no significant changes in survivin levels

Q: And the “GSK3β kinase activity (peptide phosphorylation)” value (GSK3β [2])?
A: potently inhibited GSK3β kinase activity

Q: What about the “p53 expression (Western blot)” value [3] of the same compound?
A: did not further modulate p53 expression

Q: And the “suppression of p42/p44 MAP kinase” value (p42/p44 MAP kinase)?
A: equally effective

Q: And the “apoptosis (hypodiploid DNA content)” value (p53^+/+ HCT116 cells)?
A: concentration-dependent induction of apoptosis

Q: What about the “activity against GSK3β in vitro” value (GSK3β [4]) of the same compound?
A: not active against GSK3β

Q: And the “systemic toxicity, weight loss” value ([5]; 20 mg/kg i.p. daily for 5 consecutive days)?
A: No signs of systemic toxicity or weight loss

Q: And the “early tumor growth (tumor volume)” value ([5]; 25 mg/kg i.p. daily for 5 days)?
A: significantly inhibited early tumor growth

Q: And the “tumor growth (tumor volume)” value ([5]; 50 mg/kg i.p. injection daily for 5 days, versus lower dose)?
A: did not result in further inhibition of tumor growth

Q: And the “local or systemic toxicity, weight loss” value ([5]; 25 and 50 mg/kg i.p. daily for 5 days)?
A: no signs of local or systemic toxicity or weight loss
